Laboratory results published in the supplement of paper PMC5579334.
± gives the standard deviation of the averaged measurements.

Key:
HS-PSS [1] = assay: drug sensitivity score (DSS, CellTiter-Glo viability, 72 h) (DSS (dimensionless)); higher = more sensitive; extreme values may be limits of the assay
How it was run: (§1)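 Viability of MPNST cell lines and primary human Schwann cells was read as CellTiter-Glo ATP luminescence after 72 h at 37 °C, 5% CO2, in 384-well plates seeded with 750–1000 cells per well. Each compound had been preprinted at five concentrations in 10-fold steps. Signals were scaled between vehicle and positive-control wells, duplicates averaged where present, and fitted with four-parameter logistic curves. Drug sensitivity score and relative IC50 (censored at the top concentration) come from those fits, and percent inhibition is taken at the top concentration.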

HS-Sch-2 [2] = assay: as above
How it was run: as §1

[3] = tested on: HSC1 (primary human Schwann cells); assay: as above
How it was run: as §1

[4] = tested on: HSC2 (primary human Schwann cells); assay: as above
How it was run: as §1

S1507-2 [5] = assay: as above
How it was run: as §1

S462 [6] = assay: as above
How it was run: as §1

ST8814 [7] = assay: as above
How it was run: as §1

STS26T [8] = assay: as above
How it was run: as §1

YST-1 [9] = assay: as above
How it was run: as §1

HS-PSS [10] = assay: drug sensitivity score (DSS, CellTox-Green cytotoxicity, 72 h) (DSS (dimensionless)); higher = more cytotoxic; extreme values may be limits of the assay
How it was run: (§2)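 MPNST cell lines and primary human Schwann cells were grown for 72 h at 37 °C in 384-well plates containing five 10-fold compound dilutions. CellTox-Green, added before seeding at a final 1:1000 dilution, gave fluorescence from DNA released by disrupted cells, and signals were scaled to vehicle and positive-control wells. Curves were fitted with a four-parameter logistic model. Drug sensitivity score and relative IC50 come from these fits, with IC50 censored at the top concentration.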

[11] = tested on: HSC1 (primary human Schwann cells); assay: as above
How it was run: as §2

[12] = tested on: HSC2 (primary human Schwann cells); assay: as above
How it was run: as §2

S1507-2 [13] = assay: as above
How it was run: as §2

ST8814 [14] = assay: as above
How it was run: as §2

STS26T [15] = assay: as above
How it was run: as §2

HS-PSS [16] = assay: % inhibition of CellTiter-Glo viability at highest tested concentration (72 h), relative to DMSO and benzethonium chloride controls; higher = more inhibition
How it was run: as §1

HS-Sch-2 [17] = assay: as above
How it was run: as §1

[18] = tested on: HSC1 (primary human Schwann cells); assay: as above
How it was run: as §1

[19] = tested on: HSC2 (primary human Schwann cells); assay: as above
How it was run: as §1

S1507-2 [20] = assay: as above
How it was run: as §1

S462 [21] = assay: as above
How it was run: as §1

ST8814 [22] = assay: as above
How it was run: as §1

STS26T [23] = assay: as above
How it was run: as §1

YST-1 [24] = assay: as above
How it was run: as §1

Structure (SMILES) | drug sensitivity score (HS-PSS [1]) | drug sensitivity score (HS-Sch-2 [2]) | drug sensitivity score [3] | drug sensitivity score [4] | drug sensitivity score (S1507-2 [5]) | drug sensitivity score (S462 [6]) | drug sensitivity score (ST8814 [7]) | drug sensitivity score (STS26T [8]) | drug sensitivity score (YST-1 [9]) | drug sensitivity score (HS-PSS [10]) | drug sensitivity score [11] | drug sensitivity score [12] | drug sensitivity score (S1507-2 [13]) | drug sensitivity score (ST8814 [14]) | drug sensitivity score (STS26T [15]) | % inhibition (HS-PSS [16]) [%] | % inhibition (HS-Sch-2 [17]) [%] | % inhibition [18] [%] | % inhibition [19] [%] | % inhibition (S1507-2 [20]) [%] | % inhibition (S462 [21]) [%] | % inhibition (ST8814 [22]) [%] | % inhibition (STS26T [23]) [%] | % inhibition (YST-1 [24]) [%]
Cc1ccc(C(=O)N(CCCN)[C@@H](c2oc3cc(Cl)ccc3c(=O)c2Cc2ccccc2)C(C)C)cc1 (max concentration tested 100 nM) | 6.42 | 19 | 0 | 0 | 0.0057 ± 0.0081 | 0 | 0 | 0 | 18.9 | 0 | 0 | 0 | 0 | 0 | 0 | 26.9 | 87.1 | 7.2 | -19.5 | 5.6 ± 6.5 | -2.08 ± 8.3 | 5.16 | 2.24 | 76
CN1CCC(COc2cnc(-c3cccc(Cn4nc(-c5cccc(C#N)c5)ccc4=O)c3)nc2)CC1 (max concentration tested 1000 nM) | 0 | 0 | 0 | 0 | 7.535 ± 0.062 | 2.88 ± 4.1 | 0 | 0.286 | 0 | 0 | 0 | 0 | 0.27 ± 0.38 | 0 | 0.0133 | 2.35 | 0.48 | 6.94 | 8.76 | 28.3 ± 1.1 | 12.1 ± 1.4 | 9.67 | 13.9 | 2.87
CCc1cncnc1N1CCN(Cc2nc3ccc(C(F)(F)F)cc3[nH]2)CC1 (max concentration tested 10000 nM) | 4.22 | 2.07 | 0.31 | 0.531 | 0.267 ± 0.38 | 0.305 ± 0.43 | 0.171 | 1.12 | 0.69 | 0 | 0 | 0 | 0 | 0 | 0 | 64 | 47.6 | 13.9 | 21.4 | 9.77 ± 2.6 | 13.2 ± 8.4 | 13.6 | 19.7 | 22.3
CCn1c(-c2nonc2N)nc2cnc(Oc3cccc(NC(=O)c4ccc(OCCN5CCOCC5)cc4)c3)cc21 (max concentration tested 10000 nM) | 4.2 | 6.03 | 16.9 | 18.1 | 3.11 ± 0.81 | 3.9 ± 0.086 | 2.57 | 5.65 | 6.84 | 0 | 1.62 | 0.268 | 2.06 ± 2.4 | 0 | 5.6 | 47.1 | 58 | 70.6 | 71.3 | 36.1 ± 2.2 | 43.6 ± 3.2 | 34.9 | 50.7 | 49.8
CCn1c(C(=O)N(C2CC2)C2CC2)cc2c3c(ncn3C)c(Nc3cc(C)n(C)n3)nc21 (max concentration tested 10000 nM) | 0 | 0.17 | 0 | 0 | 0.094 ± 0.13 | 0 | 0 | 0 | 2.34 | 0 | 0 | 0 | 0 | 0 | 0 | 8.84 | 16 | 9.48 | -0.298 | 3.94 ± 19 | 0.708 ± 7.6 | 7.29 | 2.67 | 29.6
CN(c1ccccc1CNc1nc(Nc2ccc3c(c2)CC(=O)N3)ncc1C(F)(F)F)S(C)(=O)=O (max concentration tested 10000 nM) | 5.97 | 6.95 | 14.5 | 13.8 | 7.1 ± 0.82 | 11.5 ± 0.24 | 7.26 | 9.12 | 10.6 | 0.56 | 1.33 | 1.33 | 2.52 ± 0.6 | 3.58 | 6.59 | 83.9 | 101 | 78.8 | 84 | 71.3 ± 1.1 | 100.3 ± 0.78 | 71.9 | 95.3 | 100
COc1ccc(-c2cc3c(C)nc(N)nc3n([C@H]3CC[C@H](OCCO)CC3)c2=O)cn1 (max concentration tested 10000 nM) | 11.7 | 14.9 | 18.3 | 16.7 | 22.5 ± 0.84 | 16.6 ± 2 | 18.8 | 20.5 | 25.6 | 0.29 | 2.35 | 2.71 | 6.9 ± 1.9 | 6.06 | 4.38 | 70.2 | 97.5 | 92.1 | 92 | 98.4 ± 1.9 | 86.96 ± 0.63 | 99.7 | 92.3 | 101
C[C@@]1(C(=O)Nc2ccc(F)nc2)CCCN1c1nc(Nc2cc(C3CC3)n[nH]2)c2cccn2n1 (max concentration tested 10000 nM) | 7.91 | 9.41 | 14.5 | 16.2 | 14.5 ± 2.5 | 15.5 ± 0.72 | 13.1 | 8.67 | 25.8 | 3.23 | 7.13 | 9.9 | 9.5 ± 0.59 | 13 | 11.7 | 87.3 | 89.1 | 94.8 | 96.7 | 99.4 ± 1.5 | 92.1 ± 1.2 | 93.2 | 64 | 74.3
Cc1c(Cn2c(C)nc3c(C(=O)O)cc(N4CCOCC4)cc32)cccc1C(F)(F)F (max concentration tested 10000 nM) | 1.06 | 0 | 0 | 0 | 3.59 ± 0.27 | 0 | 0.197 | 0.72 | 0 | 0 | 0 | 0 | 0 | 0 | 0 | 19.4 | 8.95 | 4.46 | 5.2 | 33.6 ± 5.3 | 3.26 ± 4.3 | 11.8 | 17.6 | 4.11
N#Cc1ccc(COC[C@H]2O[C@@H](n3c(NCc4ccc(Cl)c(Cl)c4)nc4c(N)ncnc43)[C@H](O)[C@@H]2O)cc1 (max concentration tested 10000 nM) | 0.47 | 0 | 5.32 | 8 | 0 | 0.314 ± 0.44 | 0 | 3.06 | 2.63 | 0 | 0 | 0 | 0 | 0 | 0.0103 | 21.7 | 9.8 | 41.6 | 44.2 | 7.48 ± 0.46 | 11.3 ± 7.2 | 8.16 | 30.7 | 28.8
Nc1nccc(-c2c(-c3ccc(F)cc3)ncn2C2CCCCC2)n1 (max concentration tested 10000 nM) | 0.55 | 0.99 | 0 | 0 | 0 | 0 | 0 | 0 | 3.26 | 0 | 0 | 0 | 0 | 0 | 0 | 21.5 | 29.1 | 9.97 | -0.333 | 2.64 ± 7.6 | -4.31 ± 12 | 5.9 | 1.02 | 33.7
Nc1ncnc2c1c(COc1cccc(Cl)c1)nn2C1CCOCC1 (max concentration tested 10000 nM) | 0 | 0.64 | 0.203 | 0 | 0.0549 ± 0.078 | 0 | 0 | 0.587 | 0 | 0 | 0 | 0 | 0.494 ± 0.64 | 0 | 0 | 7.3 | 12.5 | 11.5 | -5.42 | 9.42 ± 7.2 | -3.41 ± 5.9 | 5.84 | 18.3 | 9.51
O=C(Nc1ccc2[nH]nc(-c3ccncc3)c2c1)[C@@H]1CCN(CC(=O)N2CCN(c3ccc(-c4ncccn4)cc3)CC2)C1 (max concentration tested 10000 nM) | 5.75 | 8.78 | 10.4 | 10.6 | 10.7 ± 1.2 | 20.4 ± 0.4 | 16.7 | 4.44 | 1.98 | 0 | 0 | 0.0074 | 9.36 ± 3.5 | 10.8 | 1.59 | 45.2 | 66.4 | 61.3 | 51.2 | 77.5 ± 2.5 | 97 ± 2.1 | 91.2 | 40.4 | 31.8
O=C(O)c1ccc(-c2c[nH]c3ncc(-c4ccccc4)cc23)cc1C1CCCC1 (max concentration tested 10000 nM) | 0.42 | 1.47 | 0 | 0.756 | 0 | 0 | 0 | 0 | 0 | 0 | 0 | 0 | 0.00895 ± 0.013 | 0 | 0 | 19.2 | 31 | 8.07 | 18.7 | -2.03 ± 9.5 | 4.19 ± 1.2 | 7.81 | -4.89 | 9.07
